US9409908B2 (priority 2012, dated 2016)
Where a name gives a salt, the structure may show the parent alone. Read-outs that look alike come from different tables or passages of the source.

Tests used:
[1] = biological target: purified human Factor XIa (Homo sapiens (Human), UniProt P03951); assay: biochemical; assay type: biochemical
[2] = biological target: purified human plasma kallikrein (Homo sapiens (Human), UniProt P03952); assay: biochemical; assay type: biochemical
[3] = TFA salt, read-out: Factor XIa Ki
[4] = TFA salt, read-out: Plasma Kallikrein Ki

Sequence of purified human plasma kallikrein (P03952 whole entry, looked up): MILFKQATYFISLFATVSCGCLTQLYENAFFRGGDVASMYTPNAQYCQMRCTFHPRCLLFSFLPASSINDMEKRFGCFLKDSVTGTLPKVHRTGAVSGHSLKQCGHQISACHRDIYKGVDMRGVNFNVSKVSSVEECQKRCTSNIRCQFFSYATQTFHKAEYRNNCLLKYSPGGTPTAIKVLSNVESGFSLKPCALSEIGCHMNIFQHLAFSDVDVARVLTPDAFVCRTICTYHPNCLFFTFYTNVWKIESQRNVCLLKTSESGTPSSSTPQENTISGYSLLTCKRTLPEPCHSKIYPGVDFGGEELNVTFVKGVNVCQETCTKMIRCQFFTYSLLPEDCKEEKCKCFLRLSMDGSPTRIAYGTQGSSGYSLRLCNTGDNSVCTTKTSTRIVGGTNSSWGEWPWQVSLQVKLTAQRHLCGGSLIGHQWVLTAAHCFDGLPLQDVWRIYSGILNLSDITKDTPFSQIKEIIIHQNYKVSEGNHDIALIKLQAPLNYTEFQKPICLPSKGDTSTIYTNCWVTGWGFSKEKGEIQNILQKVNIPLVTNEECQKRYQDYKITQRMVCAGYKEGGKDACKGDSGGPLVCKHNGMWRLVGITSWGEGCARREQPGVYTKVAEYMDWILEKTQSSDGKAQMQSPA
Sequence of purified human plasma kallikrein (P03952 whole entry partner, looked up): as the sequence (P03952 whole entry, looked up) above
Sequence of purified human Factor XIa (P03951 whole entry, looked up): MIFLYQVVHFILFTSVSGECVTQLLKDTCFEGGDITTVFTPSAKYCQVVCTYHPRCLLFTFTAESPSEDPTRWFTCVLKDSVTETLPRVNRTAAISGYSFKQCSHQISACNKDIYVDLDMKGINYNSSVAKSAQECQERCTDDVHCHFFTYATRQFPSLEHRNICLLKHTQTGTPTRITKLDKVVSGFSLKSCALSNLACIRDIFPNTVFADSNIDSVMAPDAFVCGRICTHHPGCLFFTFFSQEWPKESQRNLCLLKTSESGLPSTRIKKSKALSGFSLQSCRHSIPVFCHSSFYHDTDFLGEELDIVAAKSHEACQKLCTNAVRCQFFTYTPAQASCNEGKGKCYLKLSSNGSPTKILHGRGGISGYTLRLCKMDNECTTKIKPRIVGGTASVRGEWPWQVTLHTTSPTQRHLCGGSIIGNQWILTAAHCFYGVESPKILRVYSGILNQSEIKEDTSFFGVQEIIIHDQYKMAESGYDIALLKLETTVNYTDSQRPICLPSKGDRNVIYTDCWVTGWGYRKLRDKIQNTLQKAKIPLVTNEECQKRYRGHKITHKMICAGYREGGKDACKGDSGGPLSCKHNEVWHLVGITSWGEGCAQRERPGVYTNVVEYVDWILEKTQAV
Sequence of purified human Factor XIa (P03951 whole entry partner, looked up): as the sequence (P03951 whole entry, looked up) above

SMILES: COC(=O)Nc1ccc2c(c1)NC(=O)C(C)(O)CCC[C@H](N1CCC(c3c(F)ccc(Cl)c3F)=CC1=O)c1cc-2ccn1 (stereo partly drawn) [Example 123, Methyl N-[(14S)-14-[4-(3-chloro-2,6-difluorophenyl)-6-oxo-1,2,3,6-tetrahydropyridin-1-yl]-10-hydroxy-10-methyl-9-oxo-8,16-diazatricyclo[13.3.1.0^2,7]nonadeca-1(19),2,4,6,15,17-hexaen-5-yl]carbamate, TFA salt]
- Ki ([1]; read-out: Factor XIa Ki): 20.1 nM
- Ki ([2]; read-out: Plasma Kallikrein Ki): 26.1 nM

SMILES: C[C@@H]1CCC[C@H](N2CCC(c3c(F)ccc(Cl)c3F)=CC2=O)c2cc(ccn2)-c2ccc(Nc3cccnc3)cc2NC1=O [Example 195, (10R,14S)-14-[4-(3-chloro-2,6-difluorophenyl)-6-oxo-1,2,3,6-tetrahydropyridin-1-yl]-10-methyl-5-[(pyridin-3-yl)amino]-8,16-diazatricyclo[13.3.1.0^2,7]nonadeca-1(19),2(7),3,5,15,17-hexaen-9-one, 3 TFA salt]
- Ki ([1]; read-out: Factor XIa Ki): 0.47 nM
- Ki ([2]; read-out: Plasma Kallikrein Ki): 2.96 nM

SMILES: C[C@@H]1CCC[C@H](N2CCC(c3c(F)ccc(Cl)c3F)=CC2=O)c2cc(ccn2)-c2cc3c(O)cc(=O)[nH]c3cc2NC1=O [Example 199, (14R,18S)-18-[4-(3-chloro-2,6-difluorophenyl)-6-oxo-1,2,3,6-tetrahydropyridin-1-yl]-5-hydroxy-14-methyl-8,12,20-triazatetracyclo[17.3.1.0^2,11.0^4,9]tricosa-1(23),2,4(9),5,10,19,21-heptaene-7,13-dione, TFA salt]
- Ki ([1]; read-out: Factor XIa Ki): < 0.05 nM
- Ki ([2]; read-out: Plasma Kallikrein Ki): 1.79 nM

SMILES: C[C@@H]1CCC[C@H](N2CCC(c3c(-n4cnnn4)ccc(Cl)c3F)=CC2=O)c2cc(ccn2)-c2cc(F)ccc2NC1=O [Example 184, (10R,14S)-14-{4-[3-chloro-2-fluoro-6-(1H-1,2,3,4-tetrazol-1-yl)phenyl]-6-oxo-1,2,3,6-tetrahydropyridin-1-yl}-4-fluoro-10-methyl-8,16-diazatricyclo[13.3.1.0^2,7]nonadeca-1(19),2(7),3,5,15,17-hexaen-9-one]
- Ki ([1]; read-out: Factor XIa Ki): < 0.05 nM
- Ki ([2]; read-out: Plasma Kallikrein Ki): 2.51 nM

SMILES: COC(=O)Nc1ccc2c(c1)NC(=O)[C@H](C)CCC[C@H](N1CCC(c3c(C#N)ccc(Cl)c3F)=CC1=O)c1cc-2cc(OC)n1 [Example 26, Methyl N-[(10R,14S)-14-[4-(3-chloro-6-cyano-2-fluorophenyl)-6-oxo-1,2,3,6-tetrahydropyridin-1-yl]-17-methoxy-10-methyl-9-oxo-8,16-diazatricyclo[13.3.1.0^2,7]nonadeca-1(18),2,4,6,15(19),16-hexaen-5-yl]carbamate]
- Ki ([1]; read-out: Factor XIa Ki): 0.09 nM
- Ki ([2]; read-out: Plasma Kallikrein Ki): 1 nM

SMILES: COC(=O)Nc1ccc2c(c1)NC(=O)[C@H](C)CCC[C@H](N1CCC(c3c(C#N)ccc(Cl)c3F)=CC1=O)c1cc-2cc(=O)[nH]1 [Example 30, Methyl N-[(10R,14S)-14-[4-(3-chloro-6-cyano-2-fluorophenyl)-6-oxo-1,2,3,6-tetrahydropyridin-1-yl]-10-methyl-9,17-dioxo-8,16-diazatricyclo[13.3.1.0^2,7]nonadeca-1(18),2,4,6,15(19)-pentaen-5-yl]carbamate, TFA salt]
- Ki ([1]; read-out: Factor XIa Ki): 0.21 nM
- Ki ([2]; read-out: Plasma Kallikrein Ki): 3 nM

SMILES: COC(=O)Nc1ccc2c(c1)NC(=O)[C@H](C)CCC[C@H](N1CCC(c3nccc(Cl)c3F)=CC1=O)c1cc-2cc(OC)n1 [Example 5, Methyl N-[(10R,14S)-14-[4-(4-chloro-3-fluoropyridin-2-yl)-6-oxo-1,2,3,6-tetrahydropyridin-1-yl]-17-methoxy-10-methyl-9-oxo-8,16-diazatricyclo[13.3.1.0^2,7]nonadeca-1(18),2,4,6,15(19),16-hexaen-5-yl]carbamate, TFA salt]
- Ki ([1]; read-out: Factor XIa Ki): 2 nM
- Ki ([2]; read-out: Plasma Kallikrein Ki): 3 nM

SMILES: C[C@@H]1CCC[C@H](N2CCC(c3c(F)ccc(Cl)c3F)=CC2=O)c2cc(ccn2)-c2ccc(Br)cc2NC1=O [Example 69, (10R,14S)-5-Bromo-14-[4-(3-chloro-2,6-difluorophenyl)-6-oxo-1,2,3,6-tetrahydropyridin-1-yl]-10-methyl-8,16-diazatricyclo[13.3.1.0^2,7]nonadeca-1(19),2,4,6,15,17-hexaen-9-one, TFA salt]
- Ki ([1]; read-out: Factor XIa Ki): 79.2 nM
- Ki ([2]; read-out: Plasma Kallikrein Ki): 338 nM

SMILES: COC(=O)Nc1ccc2c(c1)NC(=O)[C@H](C)CCC[C@H](N1CCC(c3c(C)ccc(Cl)c3F)=CC1=O)c1cc-2ccn1 [Example 2, Methyl N-[(10R,14S)-14-[4-(3-chloro-2-fluoro-6-methylphenyl)-6-oxo-1,2,3,6-tetrahydropyridin-1-yl]-10-methyl-9-oxo-8,16-diazatricyclo[13.3.1.0^2,7]nonadeca-1(19),2,4,6,15,17-hexaen-5-yl]carbamate, TFA salt]
- Ki ([1]; read-out: Factor XIa Ki): 0.23 nM
- Ki ([2]; read-out: Plasma Kallikrein Ki): 5 nM

SMILES: C[C@@H]1CCC[C@H](N2CCC(c3c(C#N)ccc(Cl)c3F)=CC2=O)c2cc(ccn2)-c2ccc(C(N)=O)cc2NC1=O [Example 33, (10R,14S)-14-[4-(3-Chloro-6-cyano-2-fluorophenyl)-6-oxo-1,2,3,6-tetrahydropyridin-1-yl]-10-methyl-9-oxo-8,16-diazatricyclo[13.3.1.0^2,7]nonadeca-1(19),2,4,6,15,17-hexaene-5-carboxamide, TFA salt]
- Ki ([1]; read-out: Factor XIa Ki): 2.02 nM
- Ki ([2]; read-out: Plasma Kallikrein Ki): 3 nM

SMILES: C[C@@H]1CCC[C@H](N2CCC(c3c(C(F)(F)F)ccc(Cl)c3F)=CC2=O)c2cc(ccn2)-c2cc(C(=O)O)ccc2NC1=O [Example 187, (10R,14S)-14-{4-[3-chloro-2-fluoro-6-(trifluoromethyl)phenyl]-6-oxo-1,2,3,6-tetrahydropyridin-1-yl}-10-methyl-9-oxo-8,16-diazatricyclo[13.3.1.0^2,7]nonadeca-1(19),2(7),3,5,15,17-hexaene-4-carboxylic acid]
- Ki ([1]; read-out: Factor XIa Ki): 0.44 nM
- Ki ([2]; read-out: Plasma Kallikrein Ki): 17.4 nM

SMILES: C[C@@H]1CCC[C@H](N2CCC(c3c(-c4cccnc4)ccc(Cl)c3F)=CC2=O)c2cc(ccn2)-c2ccccc2NC1=O [Example 58, (10R,14S)-14-{4-[3-Chloro-2-fluoro-6-(pyridin-3-yl)phenyl]-6-oxo-1,2,3,6-tetrahydropyridin-1-yl}-10-methyl-8,16-diazatricyclo[13.3.1.0^2,7]nonadeca-1(19),2,4,6,15,17-hexaen-9-one, TFA salt]
- Ki ([1]; read-out: Factor XIa Ki): 15.1 nM
- Ki ([2]; read-out: Plasma Kallikrein Ki): 179 nM

SMILES: C[C@@H]1CCC[C@H](n2ccc(-c3cccc(Cl)c3F)cc2=O)c2cc(ccn2)-c2ccccc2NC1=O [Example 65, (10R,14S)-14-[4-(3-Chloro-2-fluorophenyl)-2-oxo-1,2-dihydropyridin-1-yl]-10-methyl-8,16-diazatricyclo[13.3.1.0^2,7]nonadeca-1(19),2,4,6,15,17-hexaen-9-one, TFA salt]
- Ki ([1]; read-out: Factor XIa Ki): 47.6 nM
- Ki ([2]; read-out: Plasma Kallikrein Ki): 53 nM

SMILES: COC(=O)Nc1ccc2c(c1)NC(=O)[C@H](C)CCC[C@H](N1CCC(C3CCCC(C)C3)=CC1=O)c1cc-2ccn1 (single isomer, unassigned) [Example 218, TFA salt]
- Ki [1, 3]: 38.2 nM
- Ki [2, 4]: 378 nM

SMILES: C[C@@H]1CCC[C@H](N2CCC(c3c(Br)ccc(Cl)c3F)=CC2=O)c2cc(ccn2)-c2ccccc2NC1=O [Example 45, (10R,14S)-14-[4-(6-Bromo-3-chloro-2-fluorophenyl)-6-oxo-1,2,3,6-tetrahydropyridin-1-yl]-10-methyl-8,16-diazatricyclo[13.3.1.0^2,7]nonadeca-1(19),2,4,6,15,17-hexaen-9-one, TFA salt]
- Ki ([1]; read-out: Factor XIa Ki): 2.08 nM
- Ki ([2]; read-out: Plasma Kallikrein Ki): 7 nM

SMILES: C[C@@H]1CCC[C@H](N2CCC(c3c(F)ccc(Cl)c3F)=CC2=O)c2cc(ccn2)-c2cc(Br)ccc2NC1=O [Example 137, (10R,14S)-4-bromo-14-[4-(3-chloro-2,6-difluorophenyl)-6-oxo-1,2,3,6-tetrahydropyridin-1-yl]-10-methyl-8,16-diazatricyclo[13.3.1.0^2,7]nonadeca-1(19),2(7),3,5,15,17-hexaen-9-one]
- Ki ([1]; read-out: Factor XIa Ki): 69.6 nM
- Ki ([2]; read-out: Plasma Kallikrein Ki): 91.3 nM

SMILES: COC(=O)Nc1ccc2c(c1)NC(=O)[C@H](C)CCC[C@H](N1CCC(C3CCCC(C)C3)=CC1=O)c1cc-2ccn1 (single isomer, unassigned) [Example 153, TFA salt]
- Ki [1, 3]: 20 nM
- Ki [2, 4]: 21.2 nM

SMILES: C[C@@H]1CCC[C@H](N2CCC(c3c(-n4cnnn4)ccc(Cl)c3F)=CC2=O)c2cc(ccn2)-c2cc(F)c(F)cc2NC1=O [Example 215, (10R,14S)-14-{4-[3-chloro-2-fluoro-6-(1H-1,2,3,4-tetrazol-1-yl)phenyl]-6-oxo-1,2,3,6-tetrahydropyridin-1-yl}-4,5-difluoro-10-methyl-8,16-diazatricyclo[13.3.1.0^2,7]nonadeca-1(19),2(7),3,5,15,17-hexaen-9-one, TFA salt]
- Ki ([1]; read-out: Factor XIa Ki): 0.07 nM
- Ki ([2]; read-out: Plasma Kallikrein Ki): 3.61 nM

SMILES: COC(=O)Nc1ccc2c(c1)NC(=O)[C@H](C)CCC[C@H](N1CC(C)C(c3c(F)ccc(Cl)c3F)=CC1=O)c1cc-2ccn1 (single isomer, unassigned; isomer 1) [Example 177]
- Ki [1]: 0.8 nM
- Ki ([2]; Plasma Kallikrein Ki): 4.02 nM

SMILES: C[C@@H]1CCC[C@H](N2CCC(c3c(F)ccc(Cl)c3F)=CC2=O)c2cc(ccn2)-c2ccc(NC3O[C@H](CO)[C@@H](O)[C@H](O)[C@@H]3O)cc2NC1=O (stereo partly drawn) [Example 125, (10R,14S)-14-[4-(3-chloro-2,6-difluorophenyl)-6-oxo-1,2,3,6-tetrahydropyridin-1-yl]-10-methyl-5-{[(3S,4S,5S,6R)-3,4,5-trihydroxy-6-(hydroxymethyl)oxan-2-yl]amino}-8,16-diazatricyclo[13.3.1.0^2,7]nonadeca-1(19),2,4,6,15,17-hexaen-9-one]
- Ki ([1]; read-out: Factor XIa Ki): 15.2 nM
- Ki ([2]; read-out: Plasma Kallikrein Ki): 11.6 nM

SMILES: C[C@@H]1CCC[C@H](N2CCC(c3c(F)ccc(Cl)c3F)=CC2=O)c2cc(ccn2)-c2ccccc2NC1=O [Example 13, (10R,14S)-14-[4-(3-Chloro-2,6-difluorophenyl)-6-oxo-1,2,3,6-tetrahydropyridin-1-yl]-10-methyl-8,16-diazatricyclo[13.3.1.0^2,7]nonadeca-1(19),2,4,6,15,17-hexaen-9-one]
- Ki ([1]; read-out: Factor XIa Ki): 13.7 nM
- Ki ([2]; read-out: Plasma Kallikrein Ki): 8 nM

SMILES: Cc1[nH]c2nc1-c1ccccc1NC(=O)[C@H](C)CCC[C@@H]2N1CCC(c2c(F)ccc(Cl)c2F)=CC1=O [Example 220, (10R,14S)-14-[4-(3-chloro-2,6-difluorophenyl)-6-oxo-1,2,3,6-tetrahydropyridin-1-yl]-10,17-dimethyl-8,16,18-triazatricyclo[13.2.1.0^2,7]octadeca-1(17),2,4,6,15(18)-pentaen-9-one, TFA salt]
- Ki ([1]; read-out: Factor XIa Ki): 21.7 nM
- Ki ([2]; read-out: Plasma Kallikrein Ki): 50.2 nM
